What all share (type): cell-based
One series relates to K562 cancer cells. The series can be described thus: PBMC cytotoxicity against K562 cancer cells (flow cytometry). Conditions: for cytotoxicity of PBMCs against K562 cells, cotreatment with LPS (relative to negative control) / Cytotoxicity (ratio to control), + LPS: 10 μM + LPS 1 μg/mL; for cytotoxicity of PBMCs against K562 cells, cotreatment with LPS (relative to negative control) / enhancement of cytotoxicity of PBMCs against K562 cells (relative to negative control): 18 h, then 4 h coincubation; for cytotoxicity of PBMCs against K562 cells, cotreatment with LPS (relative to negative control): 40:1; for Cytotoxicity (ratio to control), + LPS / Cytotoxicity (ratio to control): Table S2; for Cytotoxicity (ratio to control) / enhancement of cytotoxicity of PBMCs against K562 cells (relative to negative control): alone: compounds 10 μM, LPS 1 μg/mL, IL-2 200 U/mL; for enhancement of cytotoxicity of PBMCs against K562 cells (relative to negative control): effector:target 40:1. The protocol:
In this study, we investigated the potential of desmuramylpeptides, both alone and in combination with LPS, to enhance the cytotoxic activity of PBMCs against cancer cells employing a flow-cytometry-based cytotoxicity assay based on coincubation of preactivated PBMCs with fluorescently labeled K562 cancer cells.[82] Among the diverse subpopulations within PBMCs, natural killer (NK) cells play a pivotal role in detecting and eliminating cancer cells. NOD2-mediated NK cell activity against cancer cells arises from both direct NOD2 agonist elicited cytolytic activity of NK cells[83] and indirect activation through cytokine release by other NOD2-responsive cells, such as monocytes, which comprise approximately 10% of PBMCs; such interactions potentially reinforce the immune response.[84] […] To that end, we utilized the entire PBMC population as effector cells rather than isolated NK cells, to mimic conditions more closely resembling the in vivo environment while K562 chronic myelogenous leukemia cells were used as the target cells in a 40:1 effector to target cell ratio.[87]
(§1) The PBMC cytotoxicity assays utilizing K562 cells were conducted following previously established methods, with some adjustments.[82] […] Meanwhile, K562 cells were stained with CFSE (Invitrogen, Carlsbad, CA, USA), washed twice with complete medium, and then added (1 × 10^4 cells per well) to the pretreated PBMCs to achieve a final effector cell to target tumor cell ratio of 40:1. Following a 4-h coincubation period at 37 °C with 5% CO2, cells were stained with Sytox blue dead cell stain (Invitrogen) and analyzed using an Attune NxT flow cytometer (Thermo Fisher Scientific, Waltham, MA, USA) along with FlowJo software (Tree Star, Inc., Ashland, OR, USA). Cells positive for both CFSE and Sytox blue were designated as dead K562 cells. PBMCs alone and CFSE-labeled cancer cells alone were also exposed to the compounds at equivalent concentrations and stained with Sytox blue to assess any direct cytotoxic effects of the compounds on PBMCs and cancer cells separately. Each experiment was conducted in duplicate and repeated in three independent biological replicates. Statistical analysis was performed using one-way ANOVA followed by Dunnett’s multiple comparisons test.

The target of the next series is T1, hNOD2 (Homo sapiens, UniProt Q9HC29).
T1 construct: host or cells: HEK-Blue NOD2 cells (HEK293)
T1 sequence (Q9HC29 whole entry): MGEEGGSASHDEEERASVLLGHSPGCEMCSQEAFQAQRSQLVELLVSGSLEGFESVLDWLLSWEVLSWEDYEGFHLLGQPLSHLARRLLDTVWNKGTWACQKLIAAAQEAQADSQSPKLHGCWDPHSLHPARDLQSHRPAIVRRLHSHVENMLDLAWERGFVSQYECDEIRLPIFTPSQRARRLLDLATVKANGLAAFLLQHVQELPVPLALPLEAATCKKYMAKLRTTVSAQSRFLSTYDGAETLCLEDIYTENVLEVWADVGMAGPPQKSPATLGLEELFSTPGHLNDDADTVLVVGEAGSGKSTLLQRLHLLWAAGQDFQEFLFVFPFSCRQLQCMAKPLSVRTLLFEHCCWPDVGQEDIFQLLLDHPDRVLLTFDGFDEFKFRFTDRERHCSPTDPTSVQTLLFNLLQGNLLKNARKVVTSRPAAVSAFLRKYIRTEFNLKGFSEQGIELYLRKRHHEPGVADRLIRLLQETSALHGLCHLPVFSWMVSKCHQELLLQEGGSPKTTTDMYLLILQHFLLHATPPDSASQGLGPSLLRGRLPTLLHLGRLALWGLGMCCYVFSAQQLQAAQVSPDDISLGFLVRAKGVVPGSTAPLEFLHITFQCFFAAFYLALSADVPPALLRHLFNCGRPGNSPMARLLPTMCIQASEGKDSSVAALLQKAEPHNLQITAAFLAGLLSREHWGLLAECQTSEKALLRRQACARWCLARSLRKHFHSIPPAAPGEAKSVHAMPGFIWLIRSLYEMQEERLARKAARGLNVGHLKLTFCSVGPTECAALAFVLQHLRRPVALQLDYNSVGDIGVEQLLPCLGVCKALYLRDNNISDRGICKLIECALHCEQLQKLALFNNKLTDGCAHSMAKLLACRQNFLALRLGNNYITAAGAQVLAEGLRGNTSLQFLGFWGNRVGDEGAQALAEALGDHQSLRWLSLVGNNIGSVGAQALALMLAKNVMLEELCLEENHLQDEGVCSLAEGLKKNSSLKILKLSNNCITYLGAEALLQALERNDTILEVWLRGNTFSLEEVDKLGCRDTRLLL
The series can be described thus: HEK-Blue NOD2 cell line reporter assay (NF-κB-inducible SEAP). As to conditions: for EC50: HEK-Blue NOD2 cells, 18 h. In short, it runs like this:
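HEK293 cells cotransfected with hNOD2 and an NF-κB-inducible SEAP reporter, exposed to compounds dose-dependently for 18 h at 37 °C, 5% CO2. SEAP read by absorbance at 630 nm; EC50 values from dose-response, duplicate wells, at least two independent biological replicates.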

For the next series, the system named is human PBMCs. Kind of series: Cytokine release from peripheral blood mononuclear cells (LEGENDplex panel). As to conditions: 18 h. The text has this:
The immunomodulatory effects of the selected desmuramylpeptides were examined in human primary peripheral blood mononuclear cells (PBMCs). This diverse mixture of immune cells provided a platform to investigate the effects of these NOD2 agonists within a physiologically relevant environment, encompassing other NOD2-interacting and downstream signaling proteins. […] Given that NOD2 activation often modulates the Toll-like receptor (TLR)-induced cytokine responses, we investigated the impact of combining desmuramylpeptides with lipopolysaccharide (LPS), a well-known TLR4 agonist, on cytokine secretion.[76]−[78]
The elicited cytokine profiles thus broadly reflect the structure–activity relationships obtained in the reporter gene assays.
Peripheral blood mononuclear cells were plated at a density of 1 × 10^6 cells/mL in 48-well plates containing 500 μL of growth medium. Cells were then treated with the compounds (2 μM) or the corresponding vehicle (0.1% DMSO), both in the absence and presence of LPS (10 ng/mL). Following an 18 h incubation period at 37 °C with 5% CO2, cell-free supernatants were collected and stored at −80 °C until analysis. […] Standard curves were constructed using recombinant cytokines provided in the kit. Data analysis was performed using Biolegend software Qognit and Prism (GraphPad, San Diego, CA, USA) software. The experiments were independently replicated four times. Statistical significance was determined using two-way analysis of variance (ANOVA) followed by Tukey’s multiple comparisons test.

The test system of another series is PBMCs. Kind of series: Direct cytotoxic effect of compounds on PBMCs (Sytox blue). Conditions: Table S2; for Percent of dead PBMCs, + LPS: 10 μM + LPS 1 μg/mL; for Percent of dead PBMCs: alone: compounds 10 μM, LPS 1 μg/mL, IL-2 200 U/mL. The protocol: Additionally, PBMCs and cancer cells alone were treated with desmuramylpeptides to assess any direct cytotoxic effects on these cells.
as §1

[1] abbreviates: NF-κB transcriptional activity (SEAP), read-out: EC50 (nM), NOD2 agonistic activity.

Like-named read-outs stand apart in the source and are kept apart here.

Regarding `CCCC(=O)Oc1ccc(/C=C/C(=O)NCC(=O)N[C@H](C(=O)N[C@H](CCC(=O)OCC)C(=O)OCC)C(C)C)cc1OC` [Compound 3, Diethyl ((E)-3-(4-(Butyryloxy)-3-methoxyphenyl)acryloyl)glycyl-L-valyl-D-glutamate], in the series with K562 cancer cells, the “cytotoxicity of PBMCs against K562 cells, cotreatment with LPS (relative to negative control)” value came out at 0.98 fold; the “Cytotoxicity (ratio to control), + LPS” value worked out at 0.98 ± 0.18; the “Cytotoxicity (ratio to control)” value worked out at 1.04 ± 0.06; the “enhancement of cytotoxicity of PBMCs against K562 cells (relative to negative control)” value (“enhancement … (relative to negative control)” for short) is listed as “no activity”. Also, on hNOD2 (EC50 ratio versus unsubstituted counterpart 1), the “enhancement in potency compared to 1” value is approximately 17 fold. For the same compound, the 50% effective concentration (EC50) at hNOD2 (setting [1]) was found to be 4.6 ± 1.6 nM. In the series on human PBMCs (2 μM + LPS 10 ng/mL), the “levels of LPS-induced IL-10” value was “amplified”; the “production of MCP-1 and IFN-γ compared to the MDP/LPS combination” value is reported as “significantly diminished production”; the “secretion of IL-1β, IL-10 and TGFβ compared to the MDP/LPS combination” value is “increased secretion”. Moreover, in the series with PBMCs, the “Percent of dead PBMCs, + LPS” value was 3.34% ± 0.35% and the “Percent of dead PBMCs” value is recorded as 1.14% ± 0.23%.
In the case of `CCOC(=O)CC[C@@H](NC(=O)[C@@H](NC(=O)CNC(=O)/C=C/c1ccc(OC(=O)CO[C@H]2CC[C@@]3(C)C(=CC[C@H]4[C@@H]5CC[C@H]([C@H](C)CCCC(C)C)[C@@]5(C)CC[C@@H]43)C2)c(OC)c1)C(C)C)C(=O)OCC` [Compound 26, Diethyl ((E)-3-(4-(2-(((8S,9S,10R,13R,14S,17R)-10,13-Dimethyl-17-((R)-6-methylheptan-2-yl)-2,3,4,7,8,9,10,11,12,13,14,15,16,17-tetradecahydro-1H-cyclopenta[a]phenanthren-3-yl)oxy)acetoxy)-3-methoxyphenyl)acryloyl)glycyl-L-valyl-D-glutamate], in the series with K562 cancer cells, the “cytotoxicity of PBMCs against K562 cells, cotreatment with LPS (relative to negative control)” value is recorded as 2.39 fold; the “Cytotoxicity (ratio to control), + LPS” value is given as 2.39 ± 0.27; the “Cytotoxicity (ratio to control)” value came to 1.34 ± 0.05; the “enhancement … (relative to negative control)” value is given as 1.34 fold. At hNOD2 (setting [1]), the EC50 stood at 12200 nM. Moreover, the concentration for a half-maximal effect (EC50) on hNOD2 (read-out: EC50, NOD2 agonistic activity (text)) came out at 12200 nM. Besides, in the series on human PBMCs (2 μM + LPS 10 ng/mL), the “levels of LPS-induced IL-10” value is recorded as “amplified”; the “production of IL-12p70 and TNF-α compared to MDP” value was “higher production”. Also, the “capacity to induce IP-10 and IFN-γ secretion” value in the series on human PBMCs (2 μM + LPS 10 ng/mL, versus MDP) is reported as “comparable to MDP”. The “production of proinflammatory cytokines and chemokines including IL-6, IL-8 and MCP-1” value in the series with human PBMCs (2 μM alone (no LPS)) is “smaller increases”. In the series on PBMCs, the “Percent of dead PBMCs, + LPS” value is listed as 9.93% ± 0.49% and the “Percent of dead PBMCs” value was 1.08% ± 0.10%.
In the case of `CC/C=C\C/C=C\C/C=C\C/C=C\C/C=C\CCCC(=O)Oc1ccc(/C=C/C(=O)NCC(=O)N[C@H](C(=O)N[C@H](CCC(=O)OCC)C(=O)OCC)C(C)C)cc1OC` [Compound 23, Diethyl ((E)-3-(4-(((5Z,8Z,11Z,14Z,17Z)-Icosa-5,8,11,14,17-pentaenoyl)oxy)-3-methoxyphenyl)acryloyl)glycyl-L-valyl-D-glutamate], in the series on K562 cancer cells, the “cytotoxicity of PBMCs against K562 cells, cotreatment with LPS (relative to negative control)” value is 1.30 fold; the “Cytotoxicity (ratio to control), + LPS” value turned out to be 1.30 ± 0.26; the “Cytotoxicity (ratio to control)” value is on record as 1.02 ± 0.08; the “enhancement … (relative to negative control)” value is “no activity”. In addition, the EC50 on hNOD2 (setting [1]) was determined as 105 ± 22.8 nM. In the series on human PBMCs (2 μM + LPS 10 ng/mL), the “levels of LPS-induced IL-10” value is on record as “amplified”; the “production of MCP-1 and IFN-γ compared to the MDP/LPS combination” value was “significantly diminished production”; the “secretion of IL-1β, IL-10 and TGFβ compared to the MDP/LPS combination” value is recorded as “increased secretion”. In the series on PBMCs, the “Percent of dead PBMCs, + LPS” value was 11.4% ± 2.64% and the “Percent of dead PBMCs” value is reported as 1.28% ± 0.06%.

The record behind these values is publication PMC11472310, “Distinctive Immune Signatures Driven by Structural Alterations in Desmuramylpeptide NOD2 Agonists” (Journal of Medicinal Chemistry, 2024).
